“And” between values parts separate entries of the source, which are not always exact repeats. Equal entries are not always repeated. ± gives the expanded uncertainty stated by the source.
Key:
[1] = Molar enthalpy of transition or fusion; settings: Crystal; DSC
[2] = for Normal melting temperature: Crystal, DTA; for mass density: 298.15 K, 101.33 kPa, Liquid, Vibrating tube method

| Compound | Molar enthalpy of transition or fusion [1] | Normal melting temperature [2] [°C] | mass density [2] [kg/m3] |
| --- | --- | --- | --- |
| N=C(N)N [guanidine] | 8.48 ± 0.184 kcal/mol | 141.00 ± 0.7 | – |
| CCCCCCCCO [octan-1-ol] | – | – | 821.6 ± 0.11 |
| CO [methanol] | – | – | 786.59 ± 0.12 |
| CCO [ethanol] | – | – | 785.02 ± 0.12 |
| CC(=O)Nc1ccc(O)cc1 [N-acetyl-p-aminophenol] | 6.57 ± 0.146 kcal/mol | 169.20 ± 0.7 | – |
| CC(C)O [propan-2-ol] | – | – | 780.8 ± 0.13 |
| NC(N)=Nc1nc(CSCC/C(N)=N/S(N)(=O)=O)cs1 [famotidine] | 11.5 kcal/mol and 12 kcal/mol | – | – |
| CC(=O)Oc1ccccc1C(=O)O [2-acetoxybenzoic acid] | 8.01 ± 0.174 kcal/mol | 135.50 ± 0.7 | – |

Reference: the NIST ThermoML archive (doi:10.1016/j.fluid.2015.07.032)
